Measurements from ChEMBL document CHEMBL1151572, “Non-glycosidic/non-aminoalkyl-substituted indolocarbazoles as inhibitors of protein kinase C” (Bioorg Med Chem Lett, 1993).

Tests used:
Protein kinase C (PKC) = assay: In vitro for inhibitory activity against protein kinase C from rat brain
[1] = target: Myosin light chain kinase, smooth muscle (Gallus gallus, UniProt P11799); assay: In vitro for inhibitory activity against myosin light-chain kinase from chicken gizzard (M-kinase)
[2] = target: cAMP-dependent protein kinase catalytic subunit alpha (Bos taurus, UniProt P00517); assay: In vitro for inhibitory activity against cAMP-dependent protein kinase from bovine heart (A-kinase)
[3] = target: T1, cGMP-dependent protein kinase 1 (Bos taurus, UniProt P00516); assay: In vitro for inhibitory activity against cGMP-dependent protein kinase from bovine lung (G-kinase)
T1 sequence (P00516 whole entry): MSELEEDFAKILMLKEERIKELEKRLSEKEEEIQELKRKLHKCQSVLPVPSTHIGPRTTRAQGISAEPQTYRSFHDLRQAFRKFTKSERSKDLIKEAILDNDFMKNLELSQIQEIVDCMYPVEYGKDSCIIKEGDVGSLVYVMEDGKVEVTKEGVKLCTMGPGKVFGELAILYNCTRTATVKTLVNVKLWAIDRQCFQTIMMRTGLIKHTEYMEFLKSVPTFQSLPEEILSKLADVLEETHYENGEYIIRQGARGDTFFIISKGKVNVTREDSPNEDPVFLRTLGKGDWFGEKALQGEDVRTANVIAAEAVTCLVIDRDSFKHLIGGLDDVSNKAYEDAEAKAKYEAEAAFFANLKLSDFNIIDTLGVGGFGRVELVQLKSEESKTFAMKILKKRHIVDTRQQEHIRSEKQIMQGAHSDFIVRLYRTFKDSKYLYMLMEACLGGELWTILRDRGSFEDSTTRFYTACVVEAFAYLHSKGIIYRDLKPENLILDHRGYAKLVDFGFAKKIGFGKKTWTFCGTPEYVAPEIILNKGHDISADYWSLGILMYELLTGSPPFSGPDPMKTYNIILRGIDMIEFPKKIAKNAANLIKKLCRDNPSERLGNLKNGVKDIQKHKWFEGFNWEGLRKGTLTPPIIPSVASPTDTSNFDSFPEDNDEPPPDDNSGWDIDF

Splenocyte = assay: In vitro for inhibitory activity against tyrosine specific protein kinase from murine spleen cells (T-kinase); format: functional, cell-based; conditions: Mus musculus

Sequence of Myosin light chain kinase, smooth muscle (P11799 whole entry): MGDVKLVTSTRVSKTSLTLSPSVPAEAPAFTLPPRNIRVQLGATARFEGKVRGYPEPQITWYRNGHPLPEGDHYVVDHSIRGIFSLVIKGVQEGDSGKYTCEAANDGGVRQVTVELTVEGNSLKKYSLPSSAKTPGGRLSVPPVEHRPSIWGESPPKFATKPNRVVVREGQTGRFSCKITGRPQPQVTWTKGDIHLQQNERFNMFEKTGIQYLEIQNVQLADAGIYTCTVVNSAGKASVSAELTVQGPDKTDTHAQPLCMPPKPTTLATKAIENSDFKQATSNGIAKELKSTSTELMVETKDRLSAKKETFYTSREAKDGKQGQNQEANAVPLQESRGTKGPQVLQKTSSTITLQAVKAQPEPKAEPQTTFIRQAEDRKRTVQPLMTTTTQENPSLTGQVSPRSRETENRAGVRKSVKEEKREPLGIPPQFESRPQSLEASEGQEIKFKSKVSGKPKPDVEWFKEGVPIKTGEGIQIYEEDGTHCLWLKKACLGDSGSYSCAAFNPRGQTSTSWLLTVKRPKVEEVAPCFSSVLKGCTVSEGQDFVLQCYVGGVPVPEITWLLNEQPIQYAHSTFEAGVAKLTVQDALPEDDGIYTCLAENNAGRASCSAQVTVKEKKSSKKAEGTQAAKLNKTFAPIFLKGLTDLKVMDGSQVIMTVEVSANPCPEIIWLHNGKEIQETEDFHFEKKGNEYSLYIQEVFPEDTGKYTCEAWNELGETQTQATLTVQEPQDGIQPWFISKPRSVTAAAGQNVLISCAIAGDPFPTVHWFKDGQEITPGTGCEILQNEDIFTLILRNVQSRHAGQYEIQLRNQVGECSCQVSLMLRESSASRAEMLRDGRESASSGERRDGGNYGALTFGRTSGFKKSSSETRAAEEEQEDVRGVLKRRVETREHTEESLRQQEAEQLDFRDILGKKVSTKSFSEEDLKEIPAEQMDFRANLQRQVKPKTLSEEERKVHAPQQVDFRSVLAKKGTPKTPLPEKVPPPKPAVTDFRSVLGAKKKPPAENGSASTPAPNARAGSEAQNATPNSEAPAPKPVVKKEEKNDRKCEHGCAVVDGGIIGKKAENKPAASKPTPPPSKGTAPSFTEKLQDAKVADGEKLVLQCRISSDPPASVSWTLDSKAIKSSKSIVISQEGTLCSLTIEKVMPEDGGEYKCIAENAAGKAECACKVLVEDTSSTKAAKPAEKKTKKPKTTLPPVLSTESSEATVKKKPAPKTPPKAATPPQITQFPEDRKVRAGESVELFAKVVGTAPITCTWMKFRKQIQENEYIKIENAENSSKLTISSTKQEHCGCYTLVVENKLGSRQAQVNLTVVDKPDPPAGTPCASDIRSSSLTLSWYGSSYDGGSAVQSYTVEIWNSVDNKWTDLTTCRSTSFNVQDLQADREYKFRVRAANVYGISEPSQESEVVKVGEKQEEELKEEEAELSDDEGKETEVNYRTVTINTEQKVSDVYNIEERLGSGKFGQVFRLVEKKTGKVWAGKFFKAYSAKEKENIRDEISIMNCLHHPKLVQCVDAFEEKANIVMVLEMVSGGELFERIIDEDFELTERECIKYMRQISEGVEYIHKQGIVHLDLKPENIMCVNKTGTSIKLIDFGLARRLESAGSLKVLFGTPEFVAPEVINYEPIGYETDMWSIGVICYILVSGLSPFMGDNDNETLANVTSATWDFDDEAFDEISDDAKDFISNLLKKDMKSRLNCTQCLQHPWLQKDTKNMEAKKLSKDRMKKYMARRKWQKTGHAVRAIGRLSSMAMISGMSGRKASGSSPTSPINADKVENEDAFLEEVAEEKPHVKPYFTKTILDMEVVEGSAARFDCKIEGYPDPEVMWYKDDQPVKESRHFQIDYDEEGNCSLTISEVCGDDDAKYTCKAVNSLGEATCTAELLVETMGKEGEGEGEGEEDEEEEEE

IC50 (Protein kinase C (PKC))	IC50 [1]	IC50 [2]	IC50 [3]	IC50 (Splenocyte)	Compound
99 nM	390 nM	4800 nM	280 nM	–	O=C1NCc2c1c1c3ccccc3[nH]c1c1c2c2ccccc2n1CC(O)CO (configuration not stated)
75 nM	500 nM	> 10000 nM	320 nM	–	N#CCCn1c2ccccc2c2c3c(c4c5ccccc5[nH]c4c21)C(=O)NC3
8100 nM	–	–	–	–	CCCn1c2ccccc2c2c3c(c4c5ccccc5n(CCC)c4c21)C(=O)NC3
3500 nM	–	–	–	–	CC(C)=CCn1c2ccccc2c2c3c(c4c5ccccc5[nH]c4c21)C(=O)NC3
200 nM	1200 nM	> 10000 nM	700 nM	–	CCn1c2ccccc2c2c3c(c4c5ccccc5n(CC)c4c21)C(=O)NC3
450 nM	5800 nM	> 100000 nM	5500 nM	–	Cn1c2ccccc2c2c3c(c4c5ccccc5n(C)c4c21)C(=O)NC3
32 nM	440 nM	2400 nM	710 nM	> 10000 nM	Cn1c2ccccc2c2c3c(c4c5ccccc5n(CC(F)F)c4c21)CNC3=O
27 nM	1600 nM	6300 nM	1300 nM	> 10000 nM	CCn1c2ccccc2c2c3c(c4c5ccccc5n(CCC#N)c4c21)CNC3=O
520 nM	1100 nM	> 10000 nM	400 nM	–	Cn1c2ccccc2c2c3c(c4c5ccccc5[nH]c4c21)C(=O)NC3
590 nM	1800 nM	> 100000 nM	21000 nM	–	O=C(O)CCn1c2ccccc2c2c3c(c4c5ccccc5[nH]c4c21)C(=O)NC3
100 nM	11000 nM	> 30000 nM	5100 nM	> 10000 nM	CCCn1c2ccccc2c2c3c(c4c5ccccc5n(C)c4c21)C(=O)NC3
110 nM	82 nM	–	–	–	NC(=O)CCn1c2ccccc2c2c3c(c4c5ccccc5[nH]c4c21)C(=O)NC3
25 nM	450 nM	–	–	–	Cn1c2ccccc2c2c3c(c4c5ccccc5n(CCCN=[N+]=[N-])c4c21)CNC3=O
> 30000 nM	> 10000 nM	> 30000 nM	> 30000 nM	> 10000 nM	CN1Cc2c(c3c4ccccc4n(C)c3c3c2c2ccccc2n3CCC#N)C1=O
–	–	> 100000 nM	–	> 10000 nM	Cn1c2ccccc2c2c3c(c4c5ccccc5n(CCC#N)c4c21)CNC3=O [GO-6976]

Compound	IC50 (Protein kinase C (PKC))	IC50 [1]	IC50 [2]	IC50 [3]	IC50 (Splenocyte)
CN[C@@H]1C[C@H]2O[C@@](C)([C@@H]1OC)n1c3ccccc3c3c4c(c5c6ccccc6n2c5c31)C(=O)NC4 [STAUROSPORINE]	–	–	–	–	400 nM
O=C1NCc2c1c1c3ccccc3[nH]c1c1[nH]c3ccccc3c21 [STAUROSPORINONE]	680 nM	2800 nM	> 10000 nM	650 nM	–
